Drawing on PubChem BioAssay AID192 (DTP/NCI, 2004), this text covers T/C for 20 molecules.

Structures are written as SMILES. Values joined by “and” are separate entries in the source; they are usually repeats but may differ in a detail not shown here. Equal entries are not always repeated. Inconclusive results and toxic doses are left out. Numbered stars: 1 amine (or outer) side, 2 acyl side, 3 side chain; on linkers, the order of the positions; unused ones are H or OH. Bridge positions count the residues as written; N and C are the ends. Square brackets hold non-standard residues; d marks the D form. Peptide text beside a SMILES is read from it. I, II: the chains in the order shown. * marks the point of attachment. ξ: configuration not given here. Actinocin(9to1) = Cc1c2oc3c(C)ccc(C(=O)[*:1])c3nc-2c(C(=O)[*:2])c(N)c1=O; ξAsp(βξ-Me) = CC(C(=O)O)C(N)C(=O)O; X4 = CC(N*)C1NC(=O)C2CCCCN2C1=O; ξAbu(3ξ-NH2) = CC(N)C(N)C(=O)O; ξPro(4ξ-Me) = CC1CNC(C(=O)O)C1; NMeV = CN[CH](C(=O)O)C(C)C; X3 = CCC(C)CCC/C=C/CC(=O)*; Sar = CNCC(=O)O

For the experiment, the system named is BDF1 mice, B16 melanoma ip, median survival T/C. Description: NCI In Vivo Anticancer Drug Screen. Data for tumor model B16 Melanoma (intraperitoneal) in B6D2F1 (BDF1) mice. Conditions: endpoint: median survival time, higher = longer survival. Summed up:
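Mice with transplantable tumors; drug vs vehicle groups; endpoint survival or tumor size; value = T/C.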

Setting [1] is: dose: 100.0 mg/kg/injection, schedule: Q01DX009 (ip), vehicle: Klucel (hydroxypropylcellulose) (HPC).
The mark [2] stands for this setting: dose: 200.0 mg/kg/injection, schedule: Q01DX009 (ip), vehicle: Klucel (hydroxypropylcellulose) (HPC).
The mark [3] stands for this setting: dose: 400.0 mg/kg/injection, schedule: Q01DX009 (ip), vehicle: Klucel (hydroxypropylcellulose) (HPC).
Where [4] appears, read: dose: 50.0 mg/kg/injection, schedule: Q01DX009 (ip), vehicle: Klucel (hydroxypropylcellulose) (HPC).
[5] abbreviates: dose: 3.0 mg/kg/injection, schedule: Q01DX009 (ip), vehicle: saline.
[6] abbreviates: dose: 100.0 mg/kg/injection, schedule: Q04DX003 (ip), vehicle: saline with Tween-80.
Where [7] appears, read: dose: 200.0 mg/kg/injection, schedule: Q04DX003 (ip), vehicle: saline with Tween-80.
The mark [8] stands for this setting: dose: 400.0 mg/kg/injection, schedule: Q04DX003 (ip), vehicle: saline with Tween-80.

Regarding `Cc1c2oc3c(C)ccc(C(=O)NC4C(=O)NC(C(C)C)C(=O)N5CC(C)CC5C(=O)N(C)CC(=O)N(C)C(C(C)C)C(=O)OC4C)c3nc-2c(C(=O)NC2C(=O)NC(C(C)C)C(=O)N3CC(C)CC3C(=O)N(C)CC(=O)N(C)C(C(C)C)C(=O)OC2C)c(N)c1=O` (stereo not given) (I: TV[ξPro(4ξ-Me)][Sar][NMeV] / II: TV[ξPro(4ξ-Me)][Sar][NMeV]; ester I:1-I:C, II:1-II:C; linker I:N-II:N via Actinocin(9to1); configuration not given here), the T/C runs as follows: (dose: 3.24 mg/kg/injection, schedule: Q04DX003 (ip), vehicle: saline + alcohol) 163 % of control; (dose: 3.6 mg/kg/injection, schedule: Q04DX003 (ip), vehicle: saline + alcohol) 123 % of control; (dose: 5.4 mg/kg/injection, schedule: Q04DX003 (ip), vehicle: saline + alcohol) 153 % of control; (dose: 9.0 mg/kg/injection, schedule: Q04DX003 (ip), vehicle: saline + alcohol) 207 % of control; (dose: 15.0 mg/kg/injection, schedule: Q04DX003 (ip), vehicle: saline + alcohol) 188 % of control; (dose: 259.0 micrograms/kg/injection, schedule: Q01DX009 (ip), vehicle: saline + alcohol) 114 % of control. Also, the T/C is 122 % of control (dose: 432.0 micrograms/kg/injection, schedule: Q01DX009 (ip), vehicle: saline + alcohol); 118 % of control (dose: 720.0 micrograms/kg/injection, schedule: Q01DX009 (ip), vehicle: saline + alcohol); 123 % of control (dose: 1200.0 micrograms/kg/injection, schedule: Q01DX009 (ip), vehicle: saline + alcohol).

Regarding `CCN(CC)CCOc1ccc2c(c1)C(=O)c1cc(OCCN(CC)CC)ccc1-2`, the T/C (dose: 13.0 mg/kg/injection, schedule: Q01DX009 (ip), vehicle: saline) is 124 % of control; the T/C (dose: 21.6 mg/kg/injection, schedule: Q01DX009 (ip), vehicle: saline) is 123 % of control; the T/C (dose: 100.0 mg/kg/injection, schedule: Q01DX009 (ip), vehicle: saline) is 124 % of control.

Consider `CCOc1ccc(NC(=O)COc2ccc(Cl)cc2)cc1`, for which the T/C by setting is: under setting [1], 103 % of control; under setting [2], 109 % of control; under setting [3], 93 % of control.

`NCCC(O)C(=O)NC1CC(N)C(OC2OC(CO)C(O)C(O)C2N)C(OC2OC(CO)C(O)C2O)C1O` (stereo not given): the T/C was 122 % of control (dose: 10.0 mg/kg/injection, schedule: Q01DX009 (ip), vehicle: saline) and 124 % of control (dose: 20.0 mg/kg/injection, schedule: Q01DX009 (ip), vehicle: saline).

Take `O=C(Cl)C1CC2c3ccccc3C1([N+](=O)[O-])c1ccccc12` (stereo not given): the T/C is 94 % of control (dose: 50.0 mg/kg/injection, schedule: Q04DX003 (ip), vehicle: Klucel (hydroxypropylcellulose) (HPC)); 100 % of control (dose: 100.0 mg/kg/injection, schedule: Q04DX003 (ip), vehicle: Klucel (hydroxypropylcellulose) (HPC)); 102 % of control (dose: 200.0 mg/kg/injection, schedule: Q04DX003 (ip), vehicle: Klucel (hydroxypropylcellulose) (HPC)).

Take `Oc1ccc(Br)cc1-c1nc2cc(Cl)c(Cl)cc2nc1-c1cc(Br)ccc1O`: the T/C runs as follows: (dose: 25.0 mg/kg/injection, schedule: Q01DX009 (ip), vehicle: Klucel (hydroxypropylcellulose) (HPC)) 87 % of control; under setting [4], 86 % of control; under setting [1], 91 % of control and 94 % of control.

As to `ClC(c1ccccc1)c1ccc(Br)cc1` (stereo not given), the T/C is 105 % of control under setting [4], 97 % of control under setting [1] and 88 % of control under setting [2].

For the molecule `O=S1(=O)C=Cc2ccccc21`, the T/C by setting is: under setting [4], 90 % of control; under setting [1], 88 % of control; under setting [2], 88 % of control.

With `C[C@@H]1CC[C@]2(C)CC[C@]3(C)C(=CC[C@@H]4[C@@]5(C)CC[C@@H](OC(=O)c6ccc(O)cc6)C(C)(C)[C@@H]5C[C@H](O)[C@]43C)[C@@H]2[C@H]1C(=O)O`, the T/C reads like this: (dose: 0.02 mg/kg/injection, schedule: Q01DX009 (ip), vehicle: saline with Tween-80) 96 % of control; (dose: 0.05 mg/kg/injection, schedule: Q01DX009 (ip), vehicle: saline with Tween-80) 91 % of control; (dose: 0.1 mg/kg/injection, schedule: Q01DX009 (ip), vehicle: saline with Tween-80) 88 % of control.

Consider `CC1(C)CC(O)(Cc2ccccc2)C(=O)c2ccccc21` (stereo not given), for which the T/C by setting is: under setting [4], 94 % of control; under setting [1], 94 % of control; under setting [2], 99 % of control; under setting [3], 97 % of control.

Take `O=C(NCCCCCCCCCCNC(=O)N1CC1)N1CC1`: the T/C runs as follows: (dose: 0.75 mg/kg/injection, schedule: Q01DX009 (ip), vehicle: saline) 115 % of control; under setting [5], 154 % of control.

In the case of `OC(Cc1cnc2ccccc2n1)(C(F)(F)F)C(F)(F)F`, the T/C by setting is: under setting [6], 105 % of control; under setting [7], 105 % of control; under setting [8], 102 % of control.

Regarding `CCC(C)CCC/C=C/CC(=O)NC(CC(=O)O)C(=O)NC(C(=O)NC(CC(=O)O)C(=O)NCC(=O)NC(CC(=O)O)C(=O)NCC(=O)NC(C(=O)NC(C(=O)N1CCCC1C(=O)NC(C)C1NC(=O)C2CCCCN2C1=O)C(C)C)C(C)N)C(C)C(=O)O` (stereo not drawn) (X3-D[ξAsp(βξ-Me)]DGDG[ξAbu(3ξ-NH2)]VP-X4; configuration not given here), the T/C by setting is: (dose: 100.0 mg/kg/injection, schedule: Q01DX009 (ip), vehicle: saline + alcohol) 90 % of control; (dose: 200.0 mg/kg/injection, schedule: Q01DX009 (ip), vehicle: saline + alcohol) 93 % of control.

As to `C=C1C(=O)OC2CC1CCC1(C)OC1CCC(C)=CCCC2(C)O` (stereo not given), the T/C is, setting by setting: (dose: 0.04 mg/kg/injection, schedule: Q01DX009 (ip), vehicle: Klucel (hydroxypropylcellulose) (HPC)) 90 % of control; (dose: 0.09 mg/kg/injection, schedule: Q01DX009 (ip), vehicle: Klucel (hydroxypropylcellulose) (HPC)) 91 % of control; (dose: 1.8 mg/kg/injection, schedule: Q01DX009 (ip), vehicle: Klucel (hydroxypropylcellulose) (HPC)) 86 % of control and 91 % of control; (dose: 7.5 mg/kg/injection, schedule: Q01DX009 (ip), vehicle: Klucel (hydroxypropylcellulose) (HPC)) 98 % of control.

With `CC(=N)/C(C(=O)NC1CCCCC1)=C(/C)O`, the T/C is, setting by setting: (dose: 100.0 mg/kg/injection, schedule: Q04DX003 (ip), vehicle: saline) 100 % of control; (dose: 200.0 mg/kg/injection, schedule: Q04DX003 (ip), vehicle: saline) 97 % of control; (dose: 400.0 mg/kg/injection, schedule: Q04DX003 (ip), vehicle: saline) 97 % of control.

With `Cc1nc(C(N)=O)c(=O)[nH]c1C`, the T/C is, setting by setting: (dose: 12.5 mg/kg/injection, schedule: Q04DX003 (ip), vehicle: saline) 97 % of control; (dose: 25.0 mg/kg/injection, schedule: Q04DX003 (ip), vehicle: saline) 102 % of control; (dose: 50.0 mg/kg/injection, schedule: Q04DX003 (ip), vehicle: saline with Tween-80) 97 % of control; (dose: 50.0 mg/kg/injection, schedule: Q04DX003 (ip), vehicle: saline) 100 % of control; under setting [6], 102 % of control; under setting [7], 100 % of control. The T/C under setting [8] was 104 % of control.

Turning to `O=[N+]([O-])O.[Cu+2].[NH-]CC[NH-].[NH-]CC[NH-]`, the T/C reads like this: under setting [5], 116 % of control; (dose: 6.0 mg/kg/injection, schedule: Q01DX009 (ip), vehicle: saline) 122 % of control; (dose: 12.0 mg/kg/injection, schedule: Q01DX009 (ip), vehicle: saline) 102 % of control; (dose: 12.5 mg/kg/injection, schedule: Q01DX009 (ip), vehicle: saline) 87 % of control.

With `CCCCNC(=O)Oc1ccc(OCc2ccccc2)cc1`, the T/C is, setting by setting: (dose: 100.0 mg/kg/injection, schedule: Q01DX009 (ip), vehicle: saline with Tween-80) 107 % of control; (dose: 200.0 mg/kg/injection, schedule: Q01DX009 (ip), vehicle: saline with Tween-80) 107 % of control; (dose: 400.0 mg/kg/injection, schedule: Q01DX009 (ip), vehicle: saline with Tween-80) 92 % of control.

Turning to `C[C@@H]1CCC[C@@H](NC(=O)N(CCCl)N=O)C1`, the T/C (dose: 4.7 mg/kg/injection, schedule: Q01DX009 (ip), vehicle: Klucel (hydroxypropylcellulose) (HPC)) is 103 % of control; the T/C (dose: 18.7 mg/kg/injection, schedule: Q01DX009 (ip), vehicle: Klucel (hydroxypropylcellulose) (HPC)) is 210 % of control; the T/C (dose: 18.75 mg/kg/injection, schedule: Q01DX009 (ip), vehicle: Klucel (hydroxypropylcellulose) (HPC)) is 192 % of control; the T/C (dose: 37.5 mg/kg/injection, schedule: Q01DX009 (ip), vehicle: Klucel (hydroxypropylcellulose) (HPC)) is 103 % of control and 229 % of control.

For the molecule `CC(=O)C(C)(NCc1ccccc1)c1ccccc1` (stereo not given), the T/C under setting [4] was 86 % of control and the T/C under setting [1] is 89 % of control.
